Measured values as given in patent publication US10570129B2 (Zoetis Services LLC, priority 2015, dated 2020).

Assays:
Haemonchus contortus L3 = assay: microbe, parasite or virus in culture; assay type: cell-based; details: for minimal effective concentration: Haemonchus contortus, 96 h, read-out: HcL3 Minimal Effective Concentration (MEC)
D. immitis microfilariae = assay: Dirofilaria immitis, microfilariae (DiMF) in vitro motility assay; assay type: cell-based; details: for minimal effective concentration: Dirofilaria immitis, 72 h, read-out: DiMF minimally effective dose (MEC)

Row | Compound | minimal effective concentration (Haemonchus contortus L3) [µM] | minimal effective concentration (D. immitis microfilariae) [µM] | HcL3 Minimal Effective Concentration (MEC) (Haemonchus contortus L3) [µM] | DiMF minimally effective dose (MEC) (D. immitis microfilariae; decrease in microfilariae motility by subjective visual assessment, observed at 72 hours) [µM]
1 | O=C(NCc1ccnc(Cl)c1)n1c2c(c3ccc(OC(F)(F)F)cc31)CN(Cc1ccc3nc(Cl)ccc3c1)CC2 [Example 367, N-((2-chloropyridin-4-yl)methyl)-2-((2-chloroquinolin-6-yl)methyl)-7-(trifluoromethoxy)-1,2,3,4-tetrahydro-5H-pyrido[4,3-b]indole-5-carboxamide] | 10 | > 100 | – | –
2 | O=C(NCc1ccnc(Cl)c1)n1c2c(c3cc(OC(F)(F)F)ccc31)CN(C/C=C/c1ccc(F)cc1F)CC2 [Example 387, (E)-N-((2-chloropyridin-4-yl)methyl)-2-(3-(2,4-difluorophenyl)allyl)-8-(trifluoromethoxy)-1,2,3,4-tetrahydro-5H-pyrido[4,3-b]indole-5-carboxamide] | 0.2 | 3.3 | – | –
3 | N#Cc1ccc2c3c(n(C(=O)NCc4ccnc(Cl)c4)c2c1)CCN(C/C=C/c1ccc(F)cc1Cl)C3 [Example 24, (E)-2-(3-(2-chloro-4-fluorophenyl)allyl)-N-((2-chloropyridin-4-yl)methyl)-7-cyano-1,2,3,4-tetrahydro-5H-pyrido[4,3-b]indole-5-carboxamide] | 5.7 | 7.6 | – | –
4 | N#Cc1cc2c3c(n(C(=O)NCc4ccnc(Cl)c4)c2cc1OC(F)(F)F)CCN(C/C=C/c1ccc(Cl)cc1)C3 [Example 503, (E)-2-(3-(4-chlorophenyl)allyl)-N-((2-chloropyridin-4-yl)methyl)-8-cyano-7-(trifluoromethoxy)-1,2,3,4-tetrahydro-5H-pyrido[4,3-b]indole-5-carboxamide] | 33 | 3.3 | – | –
5 | Cc1ccc2c3c(n(C(=O)NCc4ccnc(Cl)c4)c2c1)CCN(C/C=C/c1ccc(Cl)c(Cl)c1)C3 [Example 145, (E)-N-((2-chloropyridin-4-yl)methyl)-2-(3-(3,4-dichlorophenyl)allyl)-7-methyl-1,2,3,4-tetrahydro-5H-pyrido[4,3-b]indole-5-carboxamide] | 1 | 33 | – | –
6 | Cc1ccc2c(c1)c1c(n2C(=O)NCc2ccnc(Cl)c2)CCN(C/C=C/c2ccc(Cl)cc2)C1 [Example 431, (E)-2-(3-(4-chlorophenyl)allyl)-N-((2-chloropyridin-4-yl)methyl)-8-methyl-1,2,3,4-tetrahydro-5H-pyrido[4,3-b]indole-5-carboxamide] | 1 | 3.3 | – | –
7 | CS(=O)(=O)c1ccc2c(c1)c1c(n2C(=O)NCc2ccnc(Cl)c2)CCN(C/C=C/c2ccc(Cl)c(F)c2)C1 [Example 455, (E)-2-(3-(4-chloro-3-fluorophenyl)allyl)-N-((2-chloropyridin-4-yl)methyl)-8-(methylsulfonyl)-1,2,3,4-tetrahydro-5H-pyrido[4,3-b]indole-5-carboxamide] | 0.7 | 5.7 | – | –
8 | O=C(NCc1ccnc(Cl)c1)n1c2c(c3ccc(OC(F)(F)F)cc31)CN(Cc1ccc3cc(Br)ccc3c1)CC2 [Example 364, 2-((6-bromonaphthalen-2-yl)methyl)-N-((2-chloropyridin-4-yl)methyl)-7-(trifluoromethoxy)-1,2,3,4-tetrahydro-5H-pyrido[4,3-b]indole-5-carboxamide] | > 100 | 1.8 | – | –
9 | N#Cc1ccc2c(c1)c1c(n2C(=O)NCc2ccnc(F)c2)CCN(C/C=C/c2ccc(Cl)cc2)C1 [Example 121, (E)-2-(3-(4-chlorophenyl)allyl)-8-cyano-N-((2-fluoropyridin-4-yl)methyl)-1,2,3,4-tetrahydro-5H-pyrido[4,3-b]indole-5-carboxamide] | 0.3 | 10 | – | –
10 | O=C(NCc1ccnc(Cl)c1)n1c2c(c3cc(Cl)c(Cl)cc31)CN(C/C=C/c1ccc(Cl)c(Cl)c1)CC2 [Example 281, (E)-7,8-dichloro-N-((2-chloropyridin-4-yl)methyl)-2-(3-(3,4-dichlorophenyl)allyl)-1,2,3,4-tetrahydro-5H-pyrido[4,3-b]indole-5-carboxamide] | 1 | > 100 | – | –
11 | N#Cc1ccc(/C=C/CN2CCc3c(c4ccc(C#N)cc4n3C(=O)NCc3ccnc(Cl)c3)C2)cc1 [Example 33, (E)-N-((2-chloropyridin-4-yl)methyl)-7-cyano-2-(3-(4-cyanophenyl)allyl)-1,2,3,4-tetrahydro-5H-pyrido[4,3-b]indole-5-carboxamide] | 3.3 | > 100 | – | –
12 | O=C(NCc1cnc(Cl)s1)n1c2c(c3cc(Cl)c(Cl)cc31)CN(C/C=C/c1ccc(Cl)cc1)CC2 [Example 294, (E)-7,8-dichloro-2-(3-(4-chlorophenyl)allyl)-N-((2-chlorothiazol-5-yl)methyl)-1,2,3,4-tetrahydro-5H-pyrido[4,3-b]indole-5-carboxamide] | > 100 | 10 | – | –
13 | N#Cc1ccc2c3c(n(C(=O)NCc4ccnc(Cl)c4)c2c1)CCN(C/C=C/c1cc(F)ccc1Br)C3 [Example 10, (E)-2-(3-(2-bromo-5-fluorophenyl)allyl)-N-((2-chloropyridin-4-yl)methyl)-7-cyano-1,2,3,4-tetrahydro-5H-pyrido[4,3-b]indole-5-carboxamide] | 1 | > 100 | – | –
14 | O=C(NCc1ccnc(F)c1)n1c2c(c3ccc(OC(F)(F)F)cc31)CN(C/C=C/c1ccc(Cl)cc1Cl)CC2 [Example 370, (E)-2-(3-(2,4-dichlorophenyl)allyl)-N-((2-fluoropyridin-4-yl)methyl)-7-(trifluoromethoxy)-1,2,3,4-tetrahydro-5H-pyrido[4,3-b]indole-5-carboxamide] | 3.3 | 33 | – | –
15 | O=C(NCc1ccnc(Cl)c1)n1c2c(c3cc4c(cc31)COC4)CN(C/C=C/c1ccc(Cl)cc1)CC2 [Example 480, (E)-8-(3-(4-chlorophenyl)allyl)-N-((2-chloropyridin-4-yl)methyl)-1,3,6,7,8,9-hexahydro-5H-furo[3,4-f]pyrido[4,3-b]indole-5-carboxamide] | 0.3 | 3.3 | – | –
16 | N#Cc1ccc2c3c(n(C(=O)NCc4ccnc(Cl)c4)c2c1)CCN(C/C=C/c1ccc(Cl)cc1)C3 [Example 34, (E)-2-(3-(4-chlorophenyl)allyl)-N-((2-chloropyridin-4-yl)methyl)-7-cyano-1,2,3,4-tetrahydro-5H-pyrido[4,3-b]indole-5-carboxamide] | 3.3 | 3.3 | – | –
17 | N#Cc1ccc(/C=C/CN2CCc3c(c4ccc(OC(F)(F)F)cc4n3C(=O)NCc3ccnc(F)c3)C2)cc1F [Example 372, (E)-2-(3-(4-cyano-3-fluorophenyl)allyl)-N-((2-fluoropyridin-4-yl)methyl)-7-(trifluoromethoxy)-1,2,3,4-tetrahydro-5H-pyrido[4,3-b]indole-5-carboxamide] | 0.5 | 5.7 | – | –
18 | O=C(NCc1ccnc(F)c1)n1c2c(c3cc(F)c(Cl)cc31)CN(C/C=C/c1ccc(Cl)c(F)c1)CC2 [Example 309, (E)-7-chloro-2-(3-(4-chloro-3-fluorophenyl)allyl)-8-fluoro-N-((2-fluoropyridin-4-yl)methyl)-1,2,3,4-tetrahydro-5H-pyrido[4,3-b]indole-5-carboxamide] | 0.3 | 1.8 | – | –
19 | O=C(NCc1ccnc(Cl)c1)n1c2c(c3ccc(Br)cc31)CN(C/C=C/c1ccc(Cl)cc1)CC2 [Example 443, (E)-7-bromo-2-(3-(4-chlorophenyl)allyl)-N-((2-chloropyridin-4-yl)methyl)-1,2,3,4-tetrahydro-5H-pyrido[4,3-b]indole-5-carboxamide] | 0.5 | 3.3 | – | –
20 | O=C(NCc1ccnc(Cl)c1)n1c2c(c3ccc(C(F)(F)F)cc31)CN(C/C=C/c1ccc(C(F)(F)F)cc1)CC2 [Example 425, (E)-N-((2-chloropyridin-4-yl)methyl)-7-(trifluoromethyl)-2-(3-(4-(trifluoro-methyl)phenyl)allyl)-1,2,3,4-tetrahydro-5H-pyrido[4,3-b]indole-5-carboxamide] | > 100 | 15.8 | – | –
21 | (E)-9-chloro-2-(3-(4-chlorophenyl)allyl)-N-((2-chloropyridin-4-yl)methyl)-8-fluoro-1,2,3,4-tetrahydro-5H-pyrido[4,3-b]indole-5-carboxamide [Example 318] | – | – | 3.3 | 5.7
22 | N#Cc1cc2c3c(n(C(=O)NCc4ccnc(Cl)c4)c2cc1F)CCN(C/C=C/c1ccc(Cl)cc1)C3 [Example 178, (E)-2-(3-(4-chlorophenyl)allyl)-N-((2-chloropyridin-4-yl)methyl)-8-cyano-7-fluoro-1,2,3,4-tetrahydro-5H-pyrido[4,3-b]indole-5-carboxamide] | 0.3 | > 100 | – | –
23 | O=C(NCc1ccnc(Cl)c1)n1c2c(c3ccc(OC(F)(F)F)cc31)CN(C/C=C/c1ccc(Cl)cc1)CC2 [Example 353, (E)-2-(3-(4-chlorophenyl)allyl)-N-((2-chloropyridin-4-yl)methyl)-7-(trifluoromethoxy)-1,2,3,4-tetrahydro-5H-pyrido[4,3-b]indole-5-carboxamide] | 1 | 18.2 | – | –
24 | N#Cc1ccc(/C=C/CN2CCc3c(c4cc(C(F)(F)F)ccc4n3C(=O)NCc3ccnc(O)c3)C2)cc1 [Example 454, (E)-2-(3-(4-cyanophenyl)allyl)-N-((2-hydroxypyridin-4-yl)methyl)-8-(trifluoromethyl)-1,2,3,4-tetrahydro-5H-pyrido[4,3-b]indole-5-carboxamide] | > 100 | > 100 | – | –
